Measurements taken from patent publication US7601713B2, “Kinase inhibitors and their uses” (Rigel Pharmaceuticals, Inc., priority 2005, dated 2009).
Like-named read-outs stand apart in the source and are kept apart here.

What was measured:
[1] = biological target: T1, Axl kinase (Homo sapiens, UniProt P30530); test: Phospho-Akt in-cell Western assay (Axl antibody cross-linking, Hela cells); type: cell-based; conditions: phospho-Akt readout, read-out: IC50, inhibition of Axl kinase
T1 construct: endogenous in cells; host or cells: HeLa cells
T1 sequence (P30530 26-894): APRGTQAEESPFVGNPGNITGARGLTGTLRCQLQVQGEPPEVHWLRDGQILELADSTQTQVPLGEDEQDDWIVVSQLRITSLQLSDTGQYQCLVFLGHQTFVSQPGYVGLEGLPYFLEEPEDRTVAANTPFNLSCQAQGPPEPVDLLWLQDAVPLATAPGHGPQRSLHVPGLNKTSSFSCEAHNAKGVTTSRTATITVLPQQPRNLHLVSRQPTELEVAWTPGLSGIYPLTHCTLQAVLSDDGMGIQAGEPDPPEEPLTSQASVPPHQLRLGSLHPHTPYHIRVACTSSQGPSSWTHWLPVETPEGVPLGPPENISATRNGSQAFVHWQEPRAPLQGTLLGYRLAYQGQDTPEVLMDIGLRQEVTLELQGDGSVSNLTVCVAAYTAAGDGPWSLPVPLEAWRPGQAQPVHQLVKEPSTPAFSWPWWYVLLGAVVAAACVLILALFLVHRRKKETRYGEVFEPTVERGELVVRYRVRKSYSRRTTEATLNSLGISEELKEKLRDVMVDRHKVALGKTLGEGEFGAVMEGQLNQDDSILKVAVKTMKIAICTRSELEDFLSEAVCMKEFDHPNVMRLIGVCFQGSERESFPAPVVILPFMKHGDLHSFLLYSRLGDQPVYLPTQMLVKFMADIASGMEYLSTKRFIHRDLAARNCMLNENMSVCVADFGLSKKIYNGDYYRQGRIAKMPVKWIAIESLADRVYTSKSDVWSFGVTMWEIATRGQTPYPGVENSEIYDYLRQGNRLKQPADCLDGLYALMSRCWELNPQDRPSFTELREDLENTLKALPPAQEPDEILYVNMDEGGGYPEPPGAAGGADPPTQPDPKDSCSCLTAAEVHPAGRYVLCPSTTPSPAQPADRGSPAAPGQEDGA
Summary of the method: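 HeLa cells were starved 24 h in 0.5% FCS with 500 ng/mL Axl/Fc, pretreated with compound 1 h at 37 °C, then stimulated 5 min by cross-linked anti-Axl antibodies. Phospho-Akt was detected by in-cell chemiluminescent immunoassay and normalized to crystal violet cell number at 590 nm.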

[2] = biological target: PRK1 kinase (Homo sapiens, UniProt Q16512); test: PRK1 kinase inhibition; type: biochemical
Chain of PRK1 kinase (Q16512 whole entry): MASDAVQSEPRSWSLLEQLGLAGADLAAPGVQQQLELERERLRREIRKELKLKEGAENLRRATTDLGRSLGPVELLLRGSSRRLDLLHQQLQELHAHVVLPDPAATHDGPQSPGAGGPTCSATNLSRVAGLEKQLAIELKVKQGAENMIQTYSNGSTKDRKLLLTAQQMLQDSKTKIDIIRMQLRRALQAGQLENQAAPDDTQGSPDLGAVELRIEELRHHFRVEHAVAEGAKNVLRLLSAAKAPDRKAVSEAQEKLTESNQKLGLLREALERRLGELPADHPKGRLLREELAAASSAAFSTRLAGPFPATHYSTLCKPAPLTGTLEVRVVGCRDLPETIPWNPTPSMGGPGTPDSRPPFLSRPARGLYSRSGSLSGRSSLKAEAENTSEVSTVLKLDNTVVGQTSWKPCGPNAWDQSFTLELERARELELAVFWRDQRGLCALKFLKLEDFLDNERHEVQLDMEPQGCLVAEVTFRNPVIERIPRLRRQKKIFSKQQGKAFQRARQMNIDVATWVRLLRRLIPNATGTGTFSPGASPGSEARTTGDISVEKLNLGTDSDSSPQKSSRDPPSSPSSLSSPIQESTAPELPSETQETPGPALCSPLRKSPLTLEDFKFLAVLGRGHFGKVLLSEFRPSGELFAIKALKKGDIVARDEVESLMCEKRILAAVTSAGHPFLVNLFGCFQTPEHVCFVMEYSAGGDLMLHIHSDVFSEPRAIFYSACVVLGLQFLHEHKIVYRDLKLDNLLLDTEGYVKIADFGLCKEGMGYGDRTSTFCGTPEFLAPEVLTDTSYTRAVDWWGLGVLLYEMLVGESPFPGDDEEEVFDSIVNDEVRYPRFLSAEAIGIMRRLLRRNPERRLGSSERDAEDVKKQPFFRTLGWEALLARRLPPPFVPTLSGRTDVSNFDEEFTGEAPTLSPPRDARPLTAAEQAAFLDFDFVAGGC

[3] = biological target: Syk kinase (Homo sapiens, UniProt P43405); test: cell-based Syk assay; conditions: read-out: IC50, inhibition of Syk kinase
[4] = biological target: Aurora kinase B (Homo sapiens, UniProt Q96GD4); conditions: compared to the (1S,2S,3R,4R) diastereomers; cited from earlier work
Chain of Aurora kinase B (Q96GD4 whole entry, species assumed): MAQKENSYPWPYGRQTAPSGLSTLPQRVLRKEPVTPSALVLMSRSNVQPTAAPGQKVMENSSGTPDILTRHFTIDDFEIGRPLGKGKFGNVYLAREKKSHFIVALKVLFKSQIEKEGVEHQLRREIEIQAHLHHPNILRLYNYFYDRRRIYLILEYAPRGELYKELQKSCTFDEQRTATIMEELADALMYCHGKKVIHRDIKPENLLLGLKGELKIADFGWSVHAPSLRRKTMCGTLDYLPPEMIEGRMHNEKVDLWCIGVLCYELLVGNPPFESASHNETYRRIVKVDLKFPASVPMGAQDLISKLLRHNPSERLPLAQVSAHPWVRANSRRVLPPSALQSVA

[5] = tested on: tumor cell lines; conditions: cited from earlier work; for antiproliferative activity against tumor cell types: in vitro assays, variety of tumor cell lines
[6] = tested on: Aurora kinases; conditions: cited from earlier work

IC50 [1] | IC50 [2] | Structure (SMILES) | inhibition of Aurora kinases [6] | antiproliferative activity against tumor cell types [5] | other results
> 10 µM | < 5 µM | N#Cc1ccc(-c2ccc(Nc3nc(NC4C5C=CC(C5)C4C(N)=O)c4cc[nH]c4n3)cc2)cc1 (racemic) [Compound 220, Racemic-(2-exo,3-exo)-N4-(3-aminocarbonylbicyclo [2.2.1]hept-5-en-2-yl)-N2-[(4′-cyano[1,1′-biphenyl]-4-yl)]-1H-pyrrolo[2,3-d]pyrimidine-2,4-diamine] |  |  | 
< 5 µM | < 5 µM | NC(=O)C1C2C=CC(C2)C1Nc1nc(Nc2cccc(CN3CCOCC3)c2)nc2[nH]ccc12 (racemic) [Compound 221, Racemic-(2-exo,3-exo)-N4-(3-aminocarbonylbicyclo [2.2.1]hept-5-en-2-yl)-N2-(3-morpholin-4-yl-methylphenyl)-1H-pyrrolo[2,3-d]pyrimidine-2,4-diamine] |  |  | IC50 [3]: < 5 µM
 |  | Cc1cc(Nc2ncc(F)c(NC3C4C=CC(C4)C3C(N)=O)n2)ccc1N1CCN(C)CC1 [(1R,2R,3S,4S) diastereomer, N4-(3-aminocarbonylbicyclo [2.2.1]hept-5-en-2-yl)-5-fluoro-N2-[3-methyl-4-(4-methylpiperazin-1-yl)phenyl]-2,4-pyrimidinediamine] |  |  | inhibition of Aurora kinase B in cells [4]: similarly superior results; potency of (1R,2R,3S,4S) diastereomer relative to (1S,2S,3R,4R) diastereomer [5]: approximately 1000 fold; IC50s against tumor cell lines ([5]; isolated stereoisomers): nanomolar range
 |  | Cc1cc(Nc2ncc(F)c(NC3CCCC3C(N)=O)n2)ccc1N1CCN(C)CC1 [cis (1R,2S), N4-(2-aminocarbonylcyclopent-1-yl)-5-fluoro-N2-[4-(4-methylpiperazin-1-yl)-3-methylphenyl]-2,4-pyrimidinediamine] | inhibited Aurora kinases | inhibit the proliferation | antiproliferative activity against tumor cell types ([5]; listed as (1R,2S)): exhibited antiproliferative activity
 |  | Cc1cc(Nc2ncc(F)c(NC3CCCC3C(N)=O)n2)ccc1N1CCN(C)CC1 [cis (1S,2R), N4-(2-aminocarbonylcyclopent-1-yl)-5-fluoro-N2-[4-(4-methylpiperazin-1-yl)-3-methylphenyl]-2,4-pyrimidinediamine] | inhibited Aurora kinases | inhibit the proliferation | antiproliferative activity against tumor cell types ([5]; listed as cis(1S,2R)): exhibited antiproliferative activity
 |  | Cc1cc(Nc2ncc(F)c(NC3CCCC3C(N)=O)n2)ccc1N1CCN(C)CC1 [trans (1R,2R) diastereomer, N4-(2-aminocarbonylcyclopent-1-yl)-5-fluoro-N2-[4-(4-methylpiperazin-1-yl)-3-methylphenyl]-2,4-pyrimidinediamine] | inhibited Aurora kinases | inhibit the proliferation | antiproliferative activity against tumor cell types ([5]; listed as trans(1R,2R)): exhibited antiproliferative activity
